# Data taken from US8124788B2, “Spirocyclic cyclohexane compounds with analgesic activity” (Gruenenthal GmbH, priority 2006, dated 2012).
# Structures can show the parent of a compound that is named as a salt.
# What was measured:
# Noradrenaline reuptake = biological target: T1, Noradrenaline reuptake (Rattus norvegicus, UniProt Q63380); assay: Inhibition of noradrenaline (NA) reuptake in rat brain synaptosomes; format: biochemical; conditions: synaptosomes from rat hypothalamus
# T1 construct: synaptosomes are freshly isolated from areas of the rat brain; from tissue; host or cells: P2 synaptosome fraction from the hypothalamus of male rat brains
# Protocol: (§1) In order to be able to carry out these in vitro studies, synaptosomes are freshly isolated from areas of the rat brain. In each case a so-called “P2” fraction prepared in accordance with the instruction of Gray and Whittaker (E. G. Gray and V. P. Whittaker (1962) J. Anat. 76, 79-88) is prepared. For the NA uptake, these vesicular particles are isolated from the hypothalamus of male rat brains.
# (§2) A detailed description of the method can be found in the literature (M. Ch. Frink, H.-H. Hennies, W. Englberger, M. Haurand and B. Wilffert (1996) Arzneim.-Forsch./Drug Res. 46 (III), 11, 1029-1036).
# human μ opiate receptor = biological target: T2, human μ opiate receptor (Homo sapiens, UniProt P35372); assay: Affinity for the human μ opiate receptor ([3H]-naloxone displacement, CHO-K1 membrane preparation, SPA); format: binding; conditions: for inhibition at 1 µM / μ opioid receptor [1 μM], % inhibition: 1 μM test substance, displacement of [3H]-naloxone; for inhibition at 1 µM: read-out: μ opioid receptor [1 μM], % inhibition; for Ki: Cheng-Prusoff conversion from IC50, read-out: μ opioid receptor, Ki
# T2 construct: purchased PerkinElmer Life Sciences, Zaventem, Belgium RB-HOM; host or cells: CHO-K1 cells (recombinant expression)
# Summary of the method: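 CHO-K1 membranes expressing human μ receptor (15-40 μg protein/250 μl) were incubated 90 min at room temperature with 1 nmol/l [³H]-naloxone and WGA-SPA beads in 50 mmol/l Tris-HCl with 0.06% BSA; 100 μmol/l naloxone defined nonspecific binding. Percent displacement measured at 1 μmol/l; IC50 converted to Ki via Cheng-Prusoff.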
# Serotonin reuptake = biological target: T3, Serotonin reuptake (Rattus norvegicus, UniProt P31652); assay: Inhibition of serotonin (5HT) reuptake in rat brain synaptosomes; format: biochemical
# T3 construct: synaptosomes are freshly isolated from areas of the rat brain; from tissue
# Protocol: as §1, §2
# [1] = tested on: phenylquinone-induced writhing in mice; assay: Phenylquinone writhing; format: in vivo; conditions: 10 mg/kg intravenously, male NMRI mice
# Protocol: The analgesic activity was investigated in the phenylquinone-induced writhing in mice (modified in accordance with I. C. Hendershot und J. Forsaith (1959) J. Pharmacol. Exp. Ther. 125, 237-240), Male NMRI mice weighing from 25 to 30 g were used for this. Groups of 10 animals per substance dose received 0.3 ml/mouse of a 0.02% strength aqueous solution of phenylquinone (phenylbenzoquinone, Sigma, Deisenhofen; preparation of the solution with the addition of 5% ethanol and storage in a water bath at 45° C.) administered intraperitoneally 10 minutes after intravenous administration of the test substances. The animals were placed individually in observation cages. The number of pain-induced stretching movements (so-called writhing reactions=straightening of the body with stretching of the rear extremities) was counted by means of a push-button counter 5 to 20 minutes after the administration of phenylquinone. Animals which receive only 5% strength Cremophor solution were also run as a control. All the substances were tested in the standard dosage of 10 mg/kg. The percentage inhibition (% inhibition) of the writhing reaction by a substance was calculated according to the following formula: […]
# T2 sequence (P35372 whole entry): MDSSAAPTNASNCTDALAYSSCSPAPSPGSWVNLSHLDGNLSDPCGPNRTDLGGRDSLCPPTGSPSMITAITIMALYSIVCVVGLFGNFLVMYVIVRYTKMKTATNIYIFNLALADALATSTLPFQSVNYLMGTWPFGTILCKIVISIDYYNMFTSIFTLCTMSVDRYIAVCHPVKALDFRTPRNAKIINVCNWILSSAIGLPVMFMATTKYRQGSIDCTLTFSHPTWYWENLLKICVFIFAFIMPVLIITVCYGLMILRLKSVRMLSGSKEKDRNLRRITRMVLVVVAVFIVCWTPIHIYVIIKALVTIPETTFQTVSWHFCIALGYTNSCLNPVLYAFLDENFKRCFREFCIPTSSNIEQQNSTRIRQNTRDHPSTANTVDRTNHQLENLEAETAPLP
# T3 sequence (P31652 whole entry): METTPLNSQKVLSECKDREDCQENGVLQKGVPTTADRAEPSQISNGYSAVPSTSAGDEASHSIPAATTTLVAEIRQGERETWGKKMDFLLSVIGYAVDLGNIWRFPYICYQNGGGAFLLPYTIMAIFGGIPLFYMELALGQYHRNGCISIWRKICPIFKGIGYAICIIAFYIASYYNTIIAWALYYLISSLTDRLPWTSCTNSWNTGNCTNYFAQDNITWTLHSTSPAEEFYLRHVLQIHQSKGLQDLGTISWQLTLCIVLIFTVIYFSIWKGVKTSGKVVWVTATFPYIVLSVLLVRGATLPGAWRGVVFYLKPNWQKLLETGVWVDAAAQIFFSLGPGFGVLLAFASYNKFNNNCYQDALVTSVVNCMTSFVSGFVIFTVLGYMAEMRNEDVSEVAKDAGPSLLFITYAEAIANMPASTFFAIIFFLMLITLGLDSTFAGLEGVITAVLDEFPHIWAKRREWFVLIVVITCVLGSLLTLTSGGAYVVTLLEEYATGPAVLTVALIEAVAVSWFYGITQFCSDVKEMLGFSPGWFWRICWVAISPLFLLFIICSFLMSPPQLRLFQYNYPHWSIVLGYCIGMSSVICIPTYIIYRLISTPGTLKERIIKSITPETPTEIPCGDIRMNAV
# T1 sequence (Q63380 1-617): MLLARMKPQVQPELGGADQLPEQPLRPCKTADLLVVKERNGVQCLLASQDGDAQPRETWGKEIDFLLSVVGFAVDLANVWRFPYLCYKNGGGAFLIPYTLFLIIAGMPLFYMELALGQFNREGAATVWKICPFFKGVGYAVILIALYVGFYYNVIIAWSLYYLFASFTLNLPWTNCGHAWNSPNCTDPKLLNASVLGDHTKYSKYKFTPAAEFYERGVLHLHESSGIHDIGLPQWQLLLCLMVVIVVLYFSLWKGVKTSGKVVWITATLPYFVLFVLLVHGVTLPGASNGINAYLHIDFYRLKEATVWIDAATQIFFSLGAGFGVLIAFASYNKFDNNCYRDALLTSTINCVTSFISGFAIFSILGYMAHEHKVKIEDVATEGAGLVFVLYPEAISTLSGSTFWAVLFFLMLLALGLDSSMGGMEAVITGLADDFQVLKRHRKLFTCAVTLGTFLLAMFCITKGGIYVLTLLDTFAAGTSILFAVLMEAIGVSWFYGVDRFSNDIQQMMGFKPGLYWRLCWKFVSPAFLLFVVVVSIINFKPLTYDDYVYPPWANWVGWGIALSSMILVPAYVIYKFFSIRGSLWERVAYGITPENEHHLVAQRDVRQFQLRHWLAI
SMILES,inhibition at 10 µM (Noradrenaline reuptake) [%],inhibition at 1 µM (human μ opiate receptor) [%],Ki (human μ opiate receptor) [nM],inhibition at 10 µM (Serotonin reuptake) [%],% inhibition of the writhing reaction (dosage in mg/kg intravenously) [1],"μ opioid receptor [1 μM], % inhibition (human μ opiate receptor) [%]","Serotonin reuptake, % inhibition [10 μM] (Serotonin reuptake) [%]","Noradrenaline reuptake, % inhibition [10 μM] (Noradrenaline reuptake) [%]"
"CC1Cc2c([nH]c3ccc(F)cc23)C2(CCC(C(c3ccccc3)N(C)C)CC2)O1 (stereo not drawn) [Compound 53, 6-Fluoro-3-methyl-1,1-[3-(dimethylamino-(phenyl)-methyl) -pentamethylene]-1,3,4,9-tetrahydropyrano[3,4-b]indole]",47,97,82,60,–,–,–,–
"CN(C)C(c1ccccc1)C1CCC2(CC1)OCCc1c2[nH]c2ccccc12 (stereo not drawn) [Compound 27, 1,1-[3-(Dimethylamino-(phenyl)-methyl)-pentamethylene]-1,3,4,9-tetrahydropyrano[3,4-b]indole Citrate]",64,99,26,73,53 (10) %,–,–,–
"Cc1ccc2[nH]c3c(c2c1)CC(C)OC31CCC(C(c2ccc(Cl)cc2)N(C)C)CC1 (stereo not drawn) [Compound 44, 3,6-Dimethyl-1,1-[3-(dimethylamino-(4-chlorophenyl)-methyl) -pentamethylene]-1,3,4,9-tetrahydropyrano[3,4-b]indole]",–,72,490,–,48 (10) %,–,–,–
"Cc1ccc2[nH]c3c(c2c1)CC(C)OC31CCC(C(c2ccccc2)N(C)C)CC1 (stereo not drawn) [Compound 42, 3,6-Dimethyl-1,1-[3-(dimethylamino-(phenyl)-methyl)-pentamethylene]-1,3,4,9-tetrahydropyrano[3,4-b]indole Citrate]",–,101,29,64,–,–,–,–
"CN(C)C(c1ccc(F)cc1)C1CCC2(CC1)NCCc1c2[nH]c2ccccc12 (stereo not drawn) [Compound 17, 1,1-[3-(Dimethylamino-(4-fluorophenyl)methyl)-pentamethylene]-3,4-dihydro-1H-2,9-diazafluorene]",–,–,–,–,52 (10) %,46,83,–
"CN(C)C(c1ccc(Cl)cc1)C1CCC2(CC1)NCCc1c2[nH]c2ccccc12 (stereo not drawn) [Compound 22, 1,1-[3-(4-Chlorophenyl-(dimethylamino)-methyl)-pentamethylene]-3,4-dihydro-1H-2,9-diazafluorene]",–,–,–,–,–,33,76,–
"CN(C)C(c1ccc(Cl)cc1)C1CCC2(CC1)OCCc1c2[nH]c2ccccc12 (stereo not drawn) [Compound 30, 1,1-[3-(Dimethylamino-(4-chlorophenyl)-methyl)-pentamethylene]-1,3,4,9-tetrahydro-pyrano[3,4-b]indole]",–,84,170,56,45 (10) %,–,–,–
"CN(C)C(c1cccc(F)c1)C1CCC2(CC1)OCCc1c2[nH]c2ccccc12 (stereo not drawn) [Compound 26, 1,1-[3-(Dimethylamino-(3-fluorophenyl)-methyl)-pentamethylene]-1,3,4,9-tetrahydro-pyrano[3,4-b]indole Citrate]",49,94,33,59,–,–,–,–
"CC1Cc2c([nH]c3ccc(F)cc23)C2(CCC(C(c3cccc(F)c3)N(C)C)CC2)O1 (stereo not drawn) [Compound 52, 6-Fluoro-3-methyl-1,1-[3-(dimethylamino-(3-fluorophenyl) -methyl)-pentamethylene]-1,3,4,9-tetrahydropyrano[3,4-b]indole]",–,–,–,–,–,53,68,–
"Cc1ccc2[nH]c3c(c2c1)CC(C)OC31CCC(C(c2ccc(F)cc2)N(C)C)CC1 (stereo not drawn) [Compound 40, 3,6-Dimethyl-1,1-[3-(dimethylamino-(4-fluorophenyl)-methyl) -pentamethylene]-1,3,4,9-tetrahydropyrano[3,4-b]indole]",–,–,–,–,–,68,47,–
"CN(C)C(c1cccs1)C1CCC2(CC1)NCCc1c2[nH]c2ccccc12 (stereo not drawn) [Compound 21, 1,1-[3-(Dimethylamino-(thiophen-2-yl)-methyl)-pentamethylene]-3,4-dihydro-1H-2,9-diazafluorene]",–,–,–,–,–,62,72,50
"CC1Cc2c([nH]c3ccc(F)cc23)C2(CCC(C(CCc3ccccc3)N(C)C)CC2)O1 (stereo not drawn) [Compound 54, 6-Fluoro-3-methyl-1,1-[3-(dimethylamino-(phenylethyl)-methyl) -pentamethylene]-1,3,4,9-tetrahydropyrano[3,4-b]indole]",–,–,–,–,–,21,55,–
"CN(C)C(c1ccc(F)cc1)C1CCC2(CC1)OCCc1c2[nH]c2ccccc12 (stereo not drawn) [Compound 25, 1,1-[3-(Dimethylamino-(4-fluorophenyl)-methyl)-pentamethylene]-1,3,4,9-tetrahydro-pyrano[3,4-b]indole]",–,86,350,68,–,–,–,–
"CN(C)C(c1cccs1)C1CCC2(CC1)OCCc1c2[nH]c2ccccc12 (stereo not drawn) [Compound 29, 1,1-[3-(Dimethylamino-(thiophen-2-yl)-methyl)-pentamethylene]-1,3,4,9-tetrahydro-pyrano[3,4-b]indole]",–,99,15,45,73 (10) %,–,–,–
"Cc1ccc2[nH]c3c(c2c1)CC(C)OC31CCC(C(c2cccc(F)c2)N(C)C)CC1 (stereo not drawn) [Compound 41, 3,6-Dimethyl-1,1-[3-(dimethylamino-(3-fluorophenyl)-methyl) -pentamethylene]-1,3,4,9-tetrahydropyrano[3,4-b]indole]",–,88,300,–,40 (10) %,–,–,–
"CN(C)C(c1ccc(Cl)cc1)C1CCC2(CC1)OCCc1c2[nH]c2ccc(F)cc12 (stereo not drawn) [Compound 38, 6-Fluoro-1,1-[3-(dimethylamino-(4-chlorophenyl)-methyl)-pentamethylene]-1,3,4,9-tetrahydropyrano[3,4-b]indole]",59,84,260,57,–,–,–,–
"CN(C)C(CCc1ccccc1)C1CCC2(CC1)OCCc1c2[nH]c2ccccc12 (stereo not drawn) [Compound 28, 1,1-[3-(Dimethylamino-(phenylethyl)-methyl)-pentamethylene]-1,3,4,9-tetrahydropyrano[3,4-b]indole]",52,92,110,57,–,–,–,–
"CN(C)C(c1ccccc1)C1CCC2(CC1)OCCc1c2[nH]c2ccc(F)cc12 (stereo not drawn) [Compound 37, 6-Fluoro-1,1-[3-(dimethylamino-(phenyl)-methyl)-pentamethylene]-1,3,4,9-tetrahydro-pyrano[3,4-b]indole]",–,74,37,68,–,–,–,–
"CC1Cc2c([nH]c3ccc(F)cc23)C2(CCC(C(c3ccc(F)cc3)N(C)C)CC2)O1 (stereo not drawn) [Compound 51, 6-Fluoro-3-methyl-1,1-[3-(dimethylamino-(4-fluorophenyl) -methyl)-pentamethylene]-1,3,4,9-tetrahydropyrano[3,4-b]indole]",–,–,–,–,–,46,39,–
"CN(C)C(c1ccc(F)cc1)C1CCC2(CC1)OCCc1c2[nH]c2ccc(F)cc12 (stereo not drawn) [Compound 35, 6-Fluoro-1,1-[3-(dimethylamino-(4-fluorophenyl)-methyl) -pentamethylene]-1,3,4,9-tetrahydropyrano[3,4-b]indole]",50,98,67,55,–,–,–,–
"CN(C)C(CCc1ccccc1)C1CCC2(CC1)NCCc1c2[nH]c2ccccc12 (stereo not drawn) [Compound 20, 1,1-[3-(Dimethylamino-(phenylethyl)-methyl)-pentamethylene]-3,4-dihydro-1H-2,9-diazafluorene Citrate]",91,97,34,84,45 (10) %,–,–,–
